Reference: ChEMBL document CHEMBL3046070, “New N-arylamino biquinoline derivatives: microwave-assisted synthesis and their antimicrobial activities” (2013)
Values after ≈ are worked out from the molar mass of the structure shown.

Experiments:
Assay type in all cases: functional
Vibrio cholerae = test: Antibacterial activity against Vibrio cholerae MTCC 3906 assessed as growth inhibition after overnight incubation by NCCLS broth microdilution method
Aspergillus fumigatus = test: Antifungal activity against Aspergillus fumigatus MTCC 3008 assessed as growth inhibition after overnight incubation by NCCLS broth microdilution method
Clostridium tetani = test: Antibacterial activity against Clostridium tetani MTCC 449 assessed as growth inhibition after overnight incubation by NCCLS broth microdilution method
Streptococcus pneumoniae = test: Antibacterial activity against Streptococcus pneumoniae MTCC 1936 assessed as growth inhibition after overnight incubation by NCCLS broth microdilution method
Bacillus subtilis = test: Antibacterial activity against Bacillus subtilis MTCC 441 assessed as growth inhibition after overnight incubation by NCCLS broth microdilution method
Salmonella typhi = test: Antibacterial activity against Salmonella enterica subsp. enterica serovar Typhi MTCC 98 assessed as growth inhibition after overnight incubation by NCCLS broth microdilution method
Escherichia coli = test: Antibacterial activity against Escherichia coli MTCC 443 assessed as growth inhibition after overnight incubation by NCCLS broth microdilution method
Candida albicans = test: Antifungal activity against Candida albicans MTCC 227 assessed as growth inhibition after overnight incubation by NCCLS broth microdilution method

| Compound | MIC (Vibrio cholerae) [µg/mL] | MIC (Aspergillus fumigatus) [µg/mL] | MIC (Clostridium tetani) [µg/mL] | MIC (Streptococcus pneumoniae) [µg/mL] | MIC (Bacillus subtilis) [µg/mL] | MIC (Salmonella typhi) [µg/mL] | MIC (Escherichia coli) [µg/mL] | MIC (Candida albicans) [µg/mL] |
| --- | --- | --- | --- | --- | --- | --- | --- | --- |
| CCOC(=O)C1=C(N)N(Nc2ccccc2)C2=C(C(=O)CC(C)(C)C2)C1c1cc2ccccc2nc1Cl (centres undefined) | 500 (≈ 967 µM) | > 1000 | 500 (≈ 967 µM) | 200 (≈ 387 µM) | 200 (≈ 387 µM) | 200 (≈ 387 µM) | 50 (≈ 96.7 µM) | 250 (≈ 484 µM) |
| O=C(O)c1cn(C2CC2)c2cc(N3CCNCC3)c(F)cc2c1=O [CIPROFLOXACIN] | 25 (≈ 75.4 µM) |  |  | 50 (≈ 151 µM) |  | 25 (≈ 75.4 µM) | 25 (≈ 75.4 µM) |  |
| CCOC(=O)C1=C(N)N(Nc2ccc(C)cc2)C2=C(C(=O)CC(C)(C)C2)C1c1cc2cc(Cl)ccc2nc1Cl (centres undefined) | 500 (≈ 884 µM) | > 1000 | 500 (≈ 884 µM) | 100 (≈ 177 µM) | 250 (≈ 442 µM) | 500 (≈ 884 µM) | 500 (≈ 884 µM) | 250 (≈ 442 µM) |
| CCOC(=O)C1=C(N)N(Nc2ccc(F)cc2)C2=C(C(=O)CC(C)(C)C2)C1c1cc2cc(OC)ccc2nc1Cl (centres undefined) | 250 (≈ 442 µM) | > 1000 | 250 (≈ 442 µM) | 250 (≈ 442 µM) | 200 (≈ 354 µM) | 200 (≈ 354 µM) | 125 (≈ 221 µM) | 1000 (≈ 1770 µM) |
| CCn1cc(C(=O)O)c(=O)c2cc(F)c(N3CCNCC3)cc21 [NORFLOXACIN] | 10 (≈ 31.3 µM) |  | 50 (≈ 157 µM) | 10 (≈ 31.3 µM) | 100 (≈ 313 µM) | 10 (≈ 31.3 µM) | 10 (≈ 31.3 µM) |  |
| CCOC(=O)C1=C(N)N(Nc2ccccc2)C2=C(C(=O)CC(C)(C)C2)C1c1cc2cc(OC)ccc2nc1Cl (centres undefined) | 250 (≈ 457 µM) | > 1000 | 250 (≈ 457 µM) | 200 (≈ 366 µM) | 200 (≈ 366 µM) | 250 (≈ 457 µM) | 250 (≈ 457 µM) | > 1000 |
| O=C(N[C@H](CO)[C@H](O)c1ccc([N+](=O)[O-])cc1)C(Cl)Cl [CHLORAMPHENICOL] | 50 (≈ 155 µM) |  | 50 (≈ 155 µM) | 50 (≈ 155 µM) | 50 (≈ 155 µM) | 50 (≈ 155 µM) | 50 (≈ 155 µM) |  |
| CCOC(=O)C1=C(N)N(Nc2ccc(Br)cc2)C2=C(C(=O)CC(C)(C)C2)C1c1cc2cc(OC)ccc2nc1Cl (centres undefined) | 200 (≈ 320 µM) | 500 (≈ 799 µM) | 200 (≈ 320 µM) | 250 (≈ 399 µM) | 250 (≈ 399 µM) | 200 (≈ 320 µM) | 200 (≈ 320 µM) | > 1000 |
| CCOC(=O)C1=C(N)N(Nc2ccc(OC)cc2)C2=C(C(=O)CC(C)(C)C2)C1c1cc2cc(Cl)ccc2nc1Cl (centres undefined) | 250 (≈ 430 µM) | > 1000 | 250 (≈ 430 µM) | 500 (≈ 860 µM) | 500 (≈ 860 µM) | 250 (≈ 430 µM) | 250 (≈ 430 µM) | 1000 (≈ 1720 µM) |
| CCOC(=O)C1=C(N)N(Nc2ccc(Br)cc2)C2=C(C(=O)CC(C)(C)C2)C1c1cc2cc(C)ccc2nc1Cl (centres undefined) | 500 (≈ 820 µM) | 1000 (≈ 1640 µM) | 500 (≈ 820 µM) | 250 (≈ 410 µM) | 100 (≈ 164 µM) | 500 (≈ 820 µM) | 500 (≈ 820 µM) | 500 (≈ 820 µM) |
| CC1(C)S[C@@H]2[C@H](NC(=O)[C@H](N)c3ccccc3)C(=O)N2[C@H]1C(=O)O [AMPICILLIN] | 100 (≈ 286 µM) |  | 250 (≈ 715 µM) | 100 (≈ 286 µM) | 250 (≈ 715 µM) | 100 (≈ 286 µM) | 100 (≈ 286 µM) |  |
| CCOC(=O)C1=C(N)N(Nc2ccc(Br)cc2)C2=C(C(=O)CC(C)(C)C2)C1c1cc2cc(Cl)ccc2nc1Cl (centres undefined) | 250 (≈ 397 µM) | 1000 (≈ 1590 µM) | 250 (≈ 397 µM) | 200 (≈ 317 µM) | 200 (≈ 317 µM) | 100 (≈ 159 µM) | 200 (≈ 317 µM) | 500 (≈ 793 µM) |
| NYSTATIN |  | 100 |  |  |  |  |  | 100 |
| CCOC(=O)C1=C(N)N(Nc2ccc(Cl)cc2)C2=C(C(=O)CC(C)(C)C2)C1c1cc2cc(OC)ccc2nc1Cl (centres undefined) | 250 (≈ 430 µM) | > 1000 | 250 (≈ 430 µM) | 250 (≈ 430 µM) | 250 (≈ 430 µM) | 100 (≈ 172 µM) | 100 (≈ 172 µM) | 500 (≈ 860 µM) |
| CCOC(=O)C1=C(N)N(Nc2ccc(F)cc2)C2=C(C(=O)CC(C)(C)C2)C1c1cc2cc(C)ccc2nc1Cl (centres undefined) | 100 (≈ 182 µM) | > 1000 | 100 (≈ 182 µM) | 200 (≈ 364 µM) | 200 (≈ 364 µM) | 200 (≈ 364 µM) | 100 (≈ 182 µM) | 100 (≈ 182 µM) |
